Consider nine molecules from patent US9079977B2, “Anti-trypanosomal peptides and uses thereof” (priority 2009, dated 2015).

The test system of data set [1] is BSF T. b. brucei. Put plainly: Trypanosome killing assay, Example 4. Format: cell-based, Trypanosoma brucei brucei. The settings on record: two hour killing assay, 37° C. The method, then: Trypanosome Killing Assays. Light microscopy based trypanosome killing assays were performed as previously described in detail (Harrington et al., 2010, J Biol Chem; 285(37):28659-66; Widener et al., 2007, PLoS Pathog; 3(9):1250-61; Shiflett et al., 2007, J Eukaryot Microbiol; 54(1):18-21; and Hajduk et al., 1989, J Biol Chem; 264(9):5210-7). Metacyclic T. b. brucei TREU 667 were obtained from dissection of the salivary glands of infected tsetse flies. Newly hatched Glossina morsitans morsitans (24-48 hours post eclosion) were fed defibrinated horse blood containing 2×10^6 ml^−1 trypanosomes and maintained at 25° C. in 75% relative humidity and fed maintenance blood meals three times per week. Following day 20-30, flies were harvested and salivary glands were dissected out and washed in HMI 9 media containing 10% fetal bovine serum. Metacyclic cells were collected via centrifugation and maintained in HMI 9 media with 10% fetal bovine serum at 37° C. in 5% CO2 until use. Killing assays were conducted with 1×10^4 cells/ml in HMI 9 media containing 10% fetal bovine serum. Trypanosoma vivax and T. congolense were grown from stabilites in donor ICR mouse (Harlan, United Kingdom). Parasites were harvested from mice by terminal exsanguination and passage of infected blood through a small anion exchange column. Cells were maintained in HMI 9 with 20% goat serum at 37° C. in 5% CO2 until use. Killing assays were performed with 1×10^7 cells/ml in HMI 9 media with either 20% goat serum, in the case of T. vivax and T congolense, and 10% fetal bovine serum, for T. b. brucei. Cells were incubated at 37° C. for 2 hours and dead parasites were scored visually. All were conducted in at least duplicate, and data points are the averages with standard deviations.

Data set [2] deals with bloodstream form T. b. brucei (wild type 427). Put plainly: Trypanosome lysis assay with Hpr-SP. The following applies: 8-80 μM peptide, 2 h, 37° C. Format: cell-based, Trypanosoma brucei brucei. The method, then: Trypanosome lysis assays. Trypanosomes were cultured in the appropriate media and incubated at a cell density of 3×10^6 cells/ml with the addition of peptide from a 10 mg/ml stock in DMSO, or control reagents for 2 hours (h) at 37° C. Lysis of bloodstream form trypanosomes was evaluated by phase-contrast microscopy. Procyclic form trypanosomes were stained with 0.1% trypan blue. Trypan blue staining was also used for some bloodstream form assays to eliminate any possible discrepancy between the procyclic and bloodstream form assays.

In data set [3] the test system is Bloodstream form T. b. brucei Lister 427. Nature of the data set: Trypanosome killing assay, Example 2. Format: cell-based, Trypanosoma brucei brucei. The settings on record: two hours at 37° C. The method, then:
Trypanosome killing assays. Bloodstream form T. b. brucei Lister 427 (MiTat 1.2), T. b. gambiense type 1 (Eliane strain) and T. b. rhodesiense KETR12482 were used in these studies. Trypanosome killing assays were performed as described previously (Hajduk et al., 1989, J Biol Chem; 264(9):5210-5217; Shiflett et al., 2005, J Biol Chem; 280(38):32578-32585; and Widener et al., 2007, PLoS Pathog; 3(9):1250-1261). Cultured trypanosomes (except for T. b. gambiense which were incubated at 1×10^6 cells/ml) were incubated in HMI-9 media (BSF) or SM media (PCF) at a density of 1×10^7 cells/ml containing either 10% heat inactivated fetal bovine serum or bovine serum albumin and peptide or control reagents for two hours at 37° C. Killing of BSF trypanosomes was evaluated by phase-contrast microscopy. Procyclic form trypanosomes were stained with 0.1% trypan blue. Trypan blue staining was also used for some BSF assays to eliminate any possible discrepancy between the PCF and BSF assays. Trypan blue was added at the endpoint of each assay to avoid any toxic effects.

Data set [4] concerns Human embryonic kidney cells (HEK).
How the values of data set [5] were obtained:
Liposome permeabilization assays. Liposomes were constructed by hydration of dried lipid films with 10 mM Hepes and 30 mM calcein to a final lipid concentration of 10 mg/ml. Resulting multilamellar liposomes were extruded through a 0.1 μm polycarbonate filter at temperatures above the transition point of the particular lipid mixture. Untapped calcein was removed by gel filtration (Sephacryl S-300 HR). Permeabilization of liposomes was monitored fluorimetrically with a Perkin Elmer LS-55 luminescent spectrophotometer. Assays were performed by diluting liposomes 1:1000 into the appropriate buffer and monitoring fluorescence when excited by 484 nm light (5 nm slit width) and reading the emission intensity at 513 nm (10 nm slit widths). The percentage calcein release was calculated relative to the 100% fluorescence intensity, achieved by the addition of 0.01% Triton X-100.

The test system of data set [6] is BSF T. b. brucei. Put plainly: Trypanosome motility by video microscopy, Example 4. Format: cell-based, Trypanosoma brucei brucei. The settings on record: 40 μM peptide, 37° C. How it is done:
Trypanosome motility. All images and videos were acquired with an Axio Observer Z1 equipped with an AxioCam MRm controlled by AxioVision 4.6 software. Videos were acquired with live cells at a density of 1×10^7 cells/ml in HMI 9 media with 10% fetal bovine serum, incubated with 40 µM SHP-1 at 37° C. Videos were recorded at magnification 63× with 50-ms acquisition times. The motility of BSF trypanosomes was scored visually from video playback of trypanosomes scanned throughout 10 μl aliquots. Data is shown as the average of triplicate trials with standard deviations.

Data set [7] relates to plasma membrane of live BSF T. b. brucei. Put plainly: Anisotropy assays with DPH and TMA-DPH, Example 4. Format: cell-based, Trypanosoma brucei brucei. The settings on record: 37° C. How it is done: Anisotropy Assays. The plasma membrane rigidity of live T. b. brucei was determined by measuring the fluorescence depolarization of diphenyl-1,3,5-hexatriene p-toluenesulfonate (DPH) or 1-(4-trimethylammoniumphenyl)-6-diphenyl-1,3,5-hexatriene p-toluenesulfonate (TMA-DPH; Invitrogen T204). Cells were washed 3 times with and resuspended in PBS at a density of 3×10^6 cells/ml. The anisotropic probes were added to a final concentration of […] and allowed to intercalate into the cell membrane for one hour in the dark. Anisotropic values were acquired via the software function of a PerkinElmer Life Sciences LS55 spectrofluorometer. Samples were excited at 358 nm, and emission was read at 430 nm, both with 10-nm slit widths. Temperature was maintained at 37° C. by means of the PerkinElmer LS55 Biokinetics accessory. Data were corrected for light scattering with an unlabeled sample of cells, and anisotropy was calculated according to the equation r=(IVV−GIVH)/(IVV+2GIVH), where r is the anisotropy value, IVV is the emission intensity acquired with the excitation- and emission-polarizing filters set vertically, G is the instrument correction factor, and IVH is the emission intensity acquired with the excitation-polarizing filter set vertically and the emission-polarizing filter set horizontally. All assays were conducted at 37° C. […]

Where a SMILES comes first, the peptide text is derived from it.

On to “SRLGAVISLLLWGDQLFA (derivative of SHP-1 having an aspartic acid to arginine substitution at position 2 and an arginine to aspartic acid subsitution at position -5) [SHP-1-swap, SHP-1 with aspartic acid at position 2 and arginine at position −5 swapped]”, for which, in the data set on BSF T. b. brucei [1], the “killing of BSF T. brucei (trypanocidal activity)” value (shortened to “killing of BSF T. brucei”) is listed as “loss of trypanocidal activity”.
As to “FHQIWAALLYFYGIIENSIY (derivative of SHP-3 having a leucine to glutamic acid substitution at position -5) [SHP-3ΔE]”, the “killing of BSF T. brucei” value with BSF T. b. brucei [1] is on record as “does not”.
“ERTEESWGRRFWRRGEAC (non-specific, hydrophilic peptide predicted from the N-terminus of the alternatively edited protein-1 from mitochondria of T. b. brucei) [NSP, Non-specific hydrophilic peptide predicted from the N-terminus of alternatively edited protein-1 of T. b. brucei mitochondria, reference compound]”: the “killing (trypanolysis) of bloodstream form trypanosomes” value in data set [2] was “gave no trypanolysis”. In data set [3], the “killing of BSF T. b. brucei” value is given as “exhibited no toxicity”.
Take `CC[C@H](C)[C@H](NC(=O)[C@@H](NC(=O)[C@H](C)NC(=O)CNC(=O)[C@H](CC(C)C)NC(=O)[C@H](CC(=O)O)NC(=O)[C@H](CO)NC(=O)[C@@H](N)CCSC)C(C)C)C(=O)N[C@@H](CO)C(=O)N[C@@H](CC(C)C)C(=O)N[C@@H](CC(C)C)C(=O)N[C@@H](CC(C)C)C(=O)N[C@@H](Cc1c[nH]c2ccccc12)C(=O)NCC(=O)N[C@@H](CCCNC(=N)N)C(=O)N[C@@H](CCC(N)=O)C(=O)N[C@@H](CC(C)C)C(=O)N[C@@H](Cc1ccccc1)C(=O)N[C@@H](C)C(=O)O` [Hpr-SP, MSDLGAVISLLLWGRQLFA] (H-MSDLGAVISLLLWGRQLFA-OH; N-terminus and C-terminus assumed): the “toxicity towards human embryonic kidney cells” value in data set [4] is “No toxicity was observed”. In addition, in data set [5] (neutral or acidic pH), the “permeabilization of DSPC liposomes (calcein leakage)” value is “no permeabilizing activity at neutral or acidic pH”. In data set [5] (robust at pH 6.8), the “permeabilization of egg PC liposomes (calcein leakage)” value is reported as “readily permeabilized by nanomolar concentrations”.
For “FHQIWAALLYFYGIIRNSIY (derivative of SHP-3 having a leucine to arginine substitution at position -5) [SHP-3ΔR]”, the “motility phenotype (hyperactivation, constriction)” value in the data set on BSF T. b. brucei [6] was “induce both initial hyperactivation and subsequent constriction”. Moreover, the “rigidity of the interfacial region of the plasma membrane (TMA-DPH)” value in data set [7] was “increased the rigidity of the interfacial region of the plasma membrane”. For the same molecule, the “killing of BSF T. brucei” value in the data set with BSF T. b. brucei [1] was “confers trypanocidal activity”.
With “SDLGAVISLLWGRQLFA (derivative of SHP-1 having a single leucine deletion) [SHP-1-ΔL]”, the “decrease in trypanocidal activity relative to SHP-1” value in data set [3] was “five-fold”.
“SDLGAVISWGRQLFA (derivative of SHP-1 having a deletion of C-terminal leucine in triplicate) [SHP-1-ΔLLL, Derivative of SHP-1 with deletion of C-terminal leucine triplicate]”: the “killing of BSF T. b. brucei” value in data set [3] is recorded as “complete lose of trypanosome killing activity”.
Take “SDVISLLLWGRQLFA (derivative of SHP-1 having a deletion of the N-terminal leucine-glycine-alanine residues) [SHP-1-ΔLGA, Derivative of SHP-1 with a deletion of the N-terminal leucine-glycine-alanine residues]”: the “killing of BSF T. b. brucei” value in data set [3] is “complete lose of trypanosome killing activity”.
Turning to “AKLIALTLLGMGLALFRNHQS (amino acid sequence of small hydrophobic peptide -2 (SHP-2)) [Signal peptide of human paraoxonase-1 without the N-terminal methionine]”, in data set [3], the “killing of BSF T. b. brucei” value is recorded as “equivalent to SHP-1”.
